Where two headings read alike, the source gives them in different places. Where a SMILES comes first, the peptide text is derived from it. [ ]: non-standard residue; d: D form.

One assay addresses T1, integrin αvβ3 (Homo sapiens, UniProt P05106+P06756).
T1 construct: host or cells: U87MG human glioblastoma cells (whole cells)
Put plainly: Competitive displacement assay on integrin αvβ3-positive U87MG cells vs [125I]I-echistatin. The class given is binding. The procedure:
(§1) As in vitro receptor affinities represent an important parameter for the in vivo tumor uptake of radiotracers, the binding affinities of 1–6 were determined to both target receptors—integrin αvβ3 and the MC1R—in competitive displacement assays.
(§2) Murine melanoma cells (B16F10) and human glioblastoma cells (U87MG) as well as Dulbecco’s Modified Eagle’s Medium (DMEM) and Eagle’s Minimum Essential Medium (EMEM) were purchased from ATCC (Wesel, Germany). Fetal calf serum (FCS) was obtained from Bio&SELL (Feucht, Germany); phosphate-buffered saline (PBS), 1,10-phenanthroline, tris(hydroxymethyl)aminomethane hydrochloride (Tris·HCl) and manganese chloride (MnCl2) were obtained from Sigma-Aldrich (Taufkirchen, Germany); penicillin/streptomycin (pen/strep) and 0.25% Trypsin with 0.02% EDTA-solution in PBS were obtained from Gibco (Schwerte, Germany); 2-(4-(2-hydroxyethyl)-1-piperazinyl)-ethanesulfonic acid (HEPES) was obtained from Gerbu (Heidelberg, Germany); bovine serum albumin (BSA), sodium chloride (NaCl), calcium chloride (CaCl2) and magnesium chloride (MgCl2) were obtained from Carl Roth (Karlsruhe, Germany). [^125I]I-NDP (NEX352, 81.4 GBq/μmol) and [^125I]I-echistatin (NEX083, 81.4 GBq/μmol) were purchased from PerkinElmer (Rodgau, Germany). γ-counting was performed using a 2480 Wizard^2 gamma counter system from PerkinElmer.
(§3) To determine the binding affinity to the respective receptor, competitive displacement studies were performed on MC1R-expressing B16F10 and on integrin αvβ3-expressing U87MG cells. Each compound was evaluated at least three times, each experiment being performed in triplicate. As radioligands, [^125I]I-NDP (81.4 GBq/μmol) and [^125I]I-echistatin (81.4 GBq/μmol) were used as competitors. First, the Millipore MultiScreen 96-well filter plate was incubated with 200 μL/well of a BSA/PBS (1/99, w/v) solution at 25 °C for 1 h. After preparing the binding buffers (DMEM with 25 mM HEPES, 0.3 mM 1,10-phenanthroline and 0.2% BSA; EMEM with 20 mM Tris·HCl, 150 mM NaCl, 2 mM CaCl2, 1 mM MgCl2, 1 mM MnCl2 and 0.1% BSA), the dilution series of the HBPLs 1–6 (0.04–4 μM and 2–400 μM) and the reference agents 36–39 (0.01–1 μM and 0.04–400 μM) were prepared in the respective binding buffer. The solution of the respective radioligand was prepared by adding 55–75 kBq of the respective ^125I-labeled competitor to 3.5 mL of binding buffer. The respective cells were harvested and re-suspended in the binding buffer to give a cell concentration of 2 × 10^6/mL. After the BSA solution was filtered using the Millipore Multiscreen vacuum manifold, 50 μL of a cell suspension containing 10^5 cells were seeded in each well. Subsequently, 25 μL of the ^125I-labeled competitor solution (0.018 kBq/μL) and 25 μL of the respective compound to be tested were added. The compound to be tested was added in eleven increasing concentrations, whereas the 12th well contained no test compound to ensure the 100% binding of the ^125I-labeled competitor. After incubation of the plate for another hour at 25°C, the solution was filtrated using the Millipore Multiscreen vacuum manifold, and the cells were washed three times with cold PBS (1 × 200 μL, 2 × 100 μL). Using a Millipore MultiScreen disposable punch and a Millipore MultiScreen punch kit, the filters of the well plate were collected in γ-counter tubes separately and measured by γ-counting. The determination of the half-maximal inhibitory concentration (IC50) values was performed by fitting the obtained data via nonlinear regression using GraphPad Prism (v6.05).

For the next assay, the target named is T2, MC1R (Mus musculus, UniProt Q01727).
T2 construct: host or cells: B16F10 murine melanoma cells (whole cells)
Put plainly: Competitive displacement assay on MC1R-positive B16F10 cells vs [125I]I-NDP. The assay is classed as binding, murine. The protocol: as §1, §2, §3

On to `CCCC[C@H](NC(=O)CNC(=O)CNC(=O)CCOCCOCCC(=O)NCCCN(CCCNC(=O)CCOCCOCCC(=O)NCCCC[C@@H]1NC(=O)[C@@H](Cc2ccccc2)NC(=O)[C@H](CC(=O)O)NC(=O)CNC(=O)[C@H](CCCNC(=N)N)NC1=O)CC(=O)N[C@@H](CCCCNC(=O)CCC[N+](C)(C)Cc1ccc([Si](F)(C(C)(C)C)C(C)(C)C)cc1)C(N)=O)C(=O)N[C@H]1CC(=O)NCCCC[C@@H](C(N)=O)NC(=O)[C@H](Cc2c[nH]c3ccccc23)NC(=O)[C@H](CCCNC(=N)N)NC(=O)[C@@H](Cc2ccccc2)NC(=O)[C@H](Cc2c[nH]cn2)NC1=O` [HBPL 1, SiFAlin-APG-PEG1-c(RGDfK)/GG-Nle-c(DHfRWK)], for which the IC50 – broadly, the midpoint of a concentration-inhibition curve – on integrin αvβ3 was 2880 ± 757 nM; at MC1R, 1.74 ± 0.25 nM.

With `CCCC[C@H](NC(=O)CNC(=O)CNC(=O)CCOCCOCCOCCOCCC(=O)NCCCN(CCCNC(=O)CCOCCOCCOCCOCCC(=O)NCCCC[C@@H]1NC(=O)[C@@H](Cc2ccccc2)NC(=O)[C@H](CC(=O)O)NC(=O)CNC(=O)[C@H](CCCNC(=N)N)NC1=O)CC(=O)N[C@@H](CCCCNC(=O)CCC[N+](C)(C)Cc1ccc([Si](F)(C(C)(C)C)C(C)(C)C)cc1)C(N)=O)C(=O)N[C@H]1CC(=O)NCCCC[C@@H](C(N)=O)NC(=O)[C@H](Cc2c[nH]c3ccccc23)NC(=O)[C@H](CCCNC(=N)N)NC(=O)[C@@H](Cc2ccccc2)NC(=O)[C@H](Cc2c[nH]cn2)NC1=O` [HBPL 2, SiFAlin-APG-PEG3-c(RGDfK)/GG-Nle-c(DHfRWK)], the half-inhibitory concentration (IC50) is 1300 ± 288 nM at integrin αvβ3 and 0.99 ± 0.11 nM at MC1R.

On to `CCCC[C@H](NC(=O)CNC(=O)CNC(=O)CCOCCOCCOCCOCCOCCOCCC(=O)NCCCN(CCCNC(=O)CCOCCOCCOCCOCCOCCOCCC(=O)NCCCC[C@@H]1NC(=O)[C@@H](Cc2ccccc2)NC(=O)[C@H](CC(=O)O)NC(=O)CNC(=O)[C@H](CCCNC(=N)N)NC1=O)CC(=O)N[C@@H](CCCCNC(=O)CCC[N+](C)(C)Cc1ccc([Si](F)(C(C)(C)C)C(C)(C)C)cc1)C(N)=O)C(=O)N[C@H]1CC(=O)NCCCC[C@@H](C(N)=O)NC(=O)[C@H](Cc2c[nH]c3ccccc23)NC(=O)[C@H](CCCNC(=N)N)NC(=O)[C@@H](Cc2ccccc2)NC(=O)[C@H](Cc2c[nH]cn2)NC1=O` [HBPL 3, SiFAlin-APG-PEG5-c(RGDfK)/GG-Nle-c(DHfRWK)], for which the figures for the IC50 at integrin αvβ3 and on MC1R were 1910 ± 70 nM and 3.44 ± 0.09 nM, respectively.

With `CCCC[C@H](NC(=O)CNC(=O)CNC(=O)CCOCCOCCOCCOCCOCCOCCOCCOCCOCCC(=O)NCCCN(CCCNC(=O)CCOCCOCCOCCOCCOCCOCCOCCOCCOCCC(=O)NCCCC[C@@H]1NC(=O)[C@@H](Cc2ccccc2)NC(=O)[C@H](CC(=O)O)NC(=O)CNC(=O)[C@H](CCCNC(=N)N)NC1=O)CC(=O)N[C@@H](CCCCNC(=O)CCC[N+](C)(C)Cc1ccc([Si](F)(C(C)(C)C)C(C)(C)C)cc1)C(N)=O)C(=O)N[C@H]1CC(=O)NCCCC[C@@H](C(N)=O)NC(=O)[C@H](Cc2c[nH]c3ccccc23)NC(=O)[C@H](CCCNC(=N)N)NC(=O)[C@@H](Cc2ccccc2)NC(=O)[C@H](Cc2c[nH]cn2)NC1=O` [HBPL 4, SiFAlin-APG-PEG8-c(RGDfK)/GG-Nle-c(DHfRWK)], the 50% inhibitory concentration (IC50) on integrin αvβ3 is 2030 ± 323 nM; on MC1R, 6 ± 0.47 nM.

`CCCC[C@H](NC(=O)CNC(=O)CNC(=O)COCC(=O)NCCCN(CCCNC(=O)COCC(=O)NCCCC[C@@H]1NC(=O)[C@@H](Cc2ccccc2)NC(=O)[C@H](CC(=O)O)NC(=O)CNC(=O)[C@H](CCCNC(=N)N)NC1=O)CC(=O)N[C@@H](CCCCNC(=O)CCC[N+](C)(C)Cc1ccc([Si](F)(C(C)(C)C)C(C)(C)C)cc1)C(N)=O)C(=O)N[C@H]1CC(=O)NCCCC[C@@H](C(N)=O)NC(=O)[C@H](Cc2c[nH]c3ccccc23)NC(=O)[C@H](CCCNC(=N)N)NC(=O)[C@@H](Cc2ccccc2)NC(=O)[C@H](Cc2c[nH]cn2)NC1=O` [HBPL 5, SiFAlin-APG-DIG-c(RGDfK)/GG-Nle-c(DHfRWK)]: the IC50 at integrin αvβ3 turned out to be 5900 ± 722 nM; on MC1R, 2.05 ± 0.35 nM.

`CCCC[C@H](NC(=O)CNC(=O)CNC(=O)[C@H](CCC(=O)O)NC(=O)CNC(=O)[C@H](CCC(=O)O)NC(=O)CNC(=O)[C@H](CCC(=O)O)NC(=O)C(=O)NCCCN(CCCNC(=O)C(=O)N[C@@H](CCC(=O)O)C(=O)NCC(=O)N[C@@H](CCC(=O)O)C(=O)NCC(=O)N[C@@H](CCC(=O)O)C(=O)NCCCC[C@@H]1NC(=O)[C@@H](Cc2ccccc2)NC(=O)[C@H](CC(=O)O)NC(=O)CNC(=O)[C@H](CCCNC(=N)N)NC1=O)CC(=O)N[C@@H](CCCCNC(=O)CCC[N+](C)(C)Cc1ccc([Si](F)(C(C)(C)C)C(C)(C)C)cc1)C(N)=O)C(=O)N[C@H]1CC(=O)NCCCC[C@@H](C(N)=O)NC(=O)[C@H](Cc2c[nH]c3ccccc23)NC(=O)[C@H](CCCNC(=N)N)NC(=O)[C@@H](Cc2ccccc2)NC(=O)[C@H](Cc2c[nH]cn2)NC1=O` [HBPL 6, SiFAlin-APG-Ox-EGEGE-c(RGDfK)/GG-Nle-c(DHfRWK)]: the IC50 at integrin αvβ3 is above 100000 nM; on MC1R, 4.18 ± 0.32 nM. In addition, on integrin αvβ3 (integrin αvβ3-positive U87MG cells, competitor [125I]I-echistatin, mean ± SD), the “IC50 (U87MG)” value was “could not be determined”.

In the case of `N=C(N)NCCC[C@@H]1NC(=O)[C@H](CS)NC(=O)[C@@H](Cc2ccccc2)NC(=O)[C@H](CC(=O)O)NC(=O)CNC1=O` [c(RGDfC), reference compound] (cyclo(RGD[dF]C)), the IC50 at integrin αvβ3 (integrin αvβ3-positive U87MG cells, competitor [125I]I-echistatin, mean ± SD, read-out: IC50 (U87MG)) was found to be 1490 ± 210 nM.

On to `N=C(N)NCCC[C@@H]1NC(=O)[C@H](CCCCN)NC(=O)[C@@H](Cc2ccccc2)NC(=O)[C@H](CC(=O)O)NC(=O)CNC1=O` [c(RGDfK), cyclic Arg-Gly-Asp-DPhe-Lys, reference compound], for which, at MC1R (B16F10 cells, same conditions as IC50 assay (Figure S92)), the “receptor-specific binding to MC1R” value is “no receptor-specific binding”.

For “Gly-Gly-Nle-cyclic Asp-His-DPhe-Arg-Trp-Lys [GG-Nle-c(DHfRWK), reference compound]”, the “receptor-specific binding to integrin αvβ3” value at integrin αvβ3 (U87MG cells, same conditions as IC50 assay (Figure S92)) was “no receptor-specific binding”.

With “NDP: superpotent synthetic analog of the endogenous ligand α-MSH; reference and blocking substance [reference compound]”, the IC50 with MC1R (MC1R-positive B16F10 cells, competitor [125I]I-NDP, mean ± SD, read-out: IC50 (B16F10)) amounted to 0.17 ± 0.04 nM.

(Values after article PMC8228600, “Design, Synthesis, In Vitro and In Vivo Evaluation of Heterobivalent SiFAlin-Modified Peptidic Radioligands Targeting Both Integrin αvβ3 and the MC1 Receptor—Suitable for the Specific Visualization of Melanomas?” (Pharmaceuticals, 2021).)
